In paper PMC10013835 (Proceedings of the National Academy of Sciences of the …, 2023):
Positions count from the first letter of the chain named. Like-named read-outs stand apart in the source and are kept apart here.

Key:
PXR LBD [1] = molecular target: T1, PXR LBD (Homo sapiens, UniProt O75469); test: biochemical; settings: PXR LBD binding [IC50 ± SD (µM)]
T1 sequence (O75469 146-433 limits assumed): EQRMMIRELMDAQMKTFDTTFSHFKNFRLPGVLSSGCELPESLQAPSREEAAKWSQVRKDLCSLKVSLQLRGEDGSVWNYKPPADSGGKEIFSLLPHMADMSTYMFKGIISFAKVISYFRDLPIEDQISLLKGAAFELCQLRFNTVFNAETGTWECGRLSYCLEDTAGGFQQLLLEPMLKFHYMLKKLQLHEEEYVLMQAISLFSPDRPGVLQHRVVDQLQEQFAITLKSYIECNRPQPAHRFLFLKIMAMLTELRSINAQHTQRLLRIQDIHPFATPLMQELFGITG

PXR = molecular target: T2, PXR (Homo sapiens, UniProt O75469); assay type: cell-based; settings: WT PXR-transfected 293T cells, 24 h, Fig. 5
T2 sequence (O75469 1-434): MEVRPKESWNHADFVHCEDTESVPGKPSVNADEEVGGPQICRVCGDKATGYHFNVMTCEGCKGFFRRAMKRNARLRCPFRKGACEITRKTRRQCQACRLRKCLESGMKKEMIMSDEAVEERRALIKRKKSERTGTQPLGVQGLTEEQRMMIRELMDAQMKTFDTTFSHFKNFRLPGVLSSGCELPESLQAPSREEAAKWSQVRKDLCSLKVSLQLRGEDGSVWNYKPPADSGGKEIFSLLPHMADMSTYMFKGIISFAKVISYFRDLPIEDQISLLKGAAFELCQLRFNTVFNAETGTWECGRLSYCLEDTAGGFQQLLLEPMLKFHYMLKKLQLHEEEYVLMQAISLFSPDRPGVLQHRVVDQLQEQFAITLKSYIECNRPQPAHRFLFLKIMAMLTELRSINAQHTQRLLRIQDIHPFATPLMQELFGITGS

PXR LBD [2] = molecular target: T1, PXR LBD
W299A mutant PXR = molecular target: T3, W299A mutant PXR (Homo sapiens, UniProt O75469, W299A); settings: 293T cells, 24 h, Fig. 6
T3 sequence (O75469 1-434 W299A): T2 sequence (O75469 1-434) with W299A

Row | IC50 (PXR LBD [1]) [µM] | cellular PXR activity (luciferase reporter), in words (PXR) | Group (PXR LBD binding affinity group) (PXR LBD [2]; human, pH 7.5) | reporter activity for W299A PXR versus WT, in words (W299A mutant PXR) | IC50 (PXR LBD [1]; TR-FRET, GST-PXR LBD, rifampicin analog series) [µM] | FC, fold change, compound's IC50 divided by that of rifampicin (PXR LBD [2]; PXR LBD binding, relative to rifampicin) | Group (PXR LBD binding affinity group) (PXR LBD [2]; grouping relative to rifampicin affinity) | Compound
1 | 0.067 ± 0.009 | marginally better than rifampicin | 2 |  |  |  |  | CO[C@H]1/C=C/O[C@@]2(C)Oc3c(C)c(O)c4c(O)c(cc(O)c4c3C2=O)NC(=O)/C(C)=C\C=C\[C@H](C)[C@H](O)[C@@H](C)[C@@H](O)[C@@H](C)[C@H](OC(C)=O)[C@@H]1C [Rifamycin]
2 | 11.8 ± 4.4 |  | 1 | changed very little |  |  |  | CO[C@H]1/C=C/O[C@@]2(C)Oc3c(C)c(O)c4c(c3C2=O)C2=NC3(CCN(CC(C)C)CC3)NC2=C(NC(=O)/C(C)=C\C=C\[C@H](C)[C@H](O)[C@@H](C)[C@@H](O)[C@@H](C)[C@H](OC(C)=O)[C@@H]1C)C4=O [Rifabutin]
3 | 0.054 ± 0.014 | marginally better than rifampicin | 2 | nearly completely inactive |  |  |  | CO[C@H]1/C=C/O[C@@]2(C)Oc3c(C)c(O)c4c(c3C2=O)C(=O)C=C(NC(=O)/C(C)=C\C=C\[C@H](C)[C@H](O)[C@@H](C)[C@@H](O)[C@@H](C)[C@H](OC(C)=O)[C@@H]1C)C4=O [Rifamycin S]
4 |  |  |  |  | 11.4 ± 3.3 | 4.2 | 1 | CO[C@H]1/C=C/O[C@@]2(C)Oc3c(C)c(O)c4c(O)c(c5c(nc6cc(C)ccn65)c4c3C2=O)NC(=O)/C(C)=C\C=C\[C@H](C)[C@H](O)[C@@H](C)[C@@H](O)[C@@H](C)[C@H](OC(C)=O)[C@@H]1C [Rifaximin]
